Test results taken from patent US20130252988A1, “COMPOSITIONS AND METHODS FOR TREATING MYELOFIBROSIS” (TARGEGEN, INC., priority 2010, published 2013).
“Also recorded” adds a separate entry of the source. Where a name gives a salt, the structure may show the parent alone. Read-outs that look alike come from different tables or passages of the source.

Legend:
[1] = Plasma pharmacokinetics of TG101348, non-compartmental analysis; format: in vivo, human; conditions: for AUC(0-t) / Cmax / half-life / Tmax: human, plasma; for Tmax: median
Description: The concentration-time curves of TG101348 in plasma were evaluated by a non-compartmental analysis (with the use of WinNonlin® software, version 5.2).

[2] = test system: subjects with myelofibrosis (constitutional symptoms); test: Constitutional symptoms rated by subjects (early satiety, fatigue, night sweats, cough, pruritus); format: in vivo
Text: The data here reflected changes from symptoms present at baseline. […] Severity was rated by subjects on a scale of 1-10: 0=absent; 1-3=mild; 4-7=moderate; 8-10=severe. Improved=downgrade to absent or to mild or moderate from more severe rating at baseline.
Symptoms were categorized as “absent” (score=0), “mild” (score=1-3). “moderate” (score=4-7), or “severe” (score=8-10).

[3] = test system: bone marrow; test: Bone marrow histology (cellularity, fibrosis); format: in vivo, human
Description: Responses were measured every 4 weeks per International Working Group for MPN Research and Treatment (IWG-MRT) criteria (Tefferi A et al., Blood 108:1497-1503, 2006). Assessment of bone marrow histology was performed at baseline and every 24 weeks of therapy. Changes in JAK2V617F allele burden in the granulocyte fraction of peripheral blood were measured as previously described (Kittur J et al., Cancer 109:2279-2284, 2007); the assessments were at baseline and every 4 weeks during the first 6 cycles, and every 6th cycle of therapy in the extension study.

[4] = Body weight during study treatment; format: in vivo, human
[5] = oral, 30 mg/day (n = 3), multiple daily doses, Cycle 1, Day 28, mean
[6] = oral, 60 mg/day (n = 3), multiple daily doses, Cycle 1, Day 28, mean
[7] = oral, 120 mg/day (n = 3), multiple daily doses, Cycle 1, Day 28, mean
[8] = oral, 240 mg/day (n = 3), multiple daily doses, Cycle 1, Day 28, mean
[9] = oral, 360 mg/day (n = 3), multiple daily doses, Cycle 1, Day 28, mean
[10] = oral, 520 mg/day (n = 3), multiple daily doses, Cycle 1, Day 28, mean
[11] = oral, 680 mg/day (n = 27), multiple daily doses, Cycle 1, Day 28, mean
[12] = oral, 800 mg/day (n = 5), multiple daily doses, Cycle 1, Day 28, mean
[13] = over a 27-fold increase in dose
[14] = MTD cohort, after 1 cycle (n=12)
[15] = MTD cohort, after 1 cycle, 8 subjects at baseline
[16] = MTD cohort, after 6 cycles (n=16)

Question: Which results are given for `Cc1cnc(Nc2ccc(OCCN3CCCC3)cc2)nc1Nc1cccc(S(=O)(=O)NC(C)(C)C)c1` [TG101348, N-tert-butyl-3-[(5-methyl-2-{[4-(2-pyrrolidin-1-ylethoxy)phenyl]amino}pyrimidin-4-yl)amino]benzenesulfonamide dihydrochloride monohydrate]?
Answer: Dose proportionality of plasma PK parameters (Cmax and AUC0-t) ([1]; 30 to 800 mg/day): greater than dose-proportional increases; AUC(0-t) [1, 5]: 807 ng·h/mL; Cmax [1, 5]: 81.8 ng/mL; half-life ([1]; oral, 30 mg/day (n = 3), multiple daily doses, Cycle 1, Day 28, mean, read-out: T1/2 (terminal half-life) (converted)): 20.9 h; Tmax ([1]; oral, 30 mg/day (n = 3), multiple daily doses, Cycle 1, Day 28): 2 h; AUC(0-t) [1, 6]: 2430 ng·h/mL; Cmax [1, 6]: 257 ng/mL; half-life ([1]; oral, 60 mg/day (n = 3), multiple daily doses, Cycle 1, Day 28, mean, read-out: T1/2 (terminal half-life) (converted)): 15.7 h; Tmax ([1]; oral, 60 mg/day (n = 3), multiple daily doses, Cycle 1, Day 28): 1 h; AUC(0-t) [1, 7]: 7650 ng·h/mL; Cmax [1, 7]: 557 ng/mL; half-life ([1]; oral, 120 mg/day (n = 3), multiple daily doses, Cycle 1, Day 28, mean, read-out: T1/2 (terminal half-life) (converted)): 24.4 h; Tmax ([1]; oral, 120 mg/day (n = 3), multiple daily doses, Cycle 1, Day 28): 2 h; AUC(0-t) [1, 8]: 26200 ng·h/mL; Cmax [1, 8]: 1800 ng/mL; half-life ([1]; oral, 240 mg/day (n = 3), multiple daily doses, Cycle 1, Day 28, mean, read-out: T1/2 (terminal half-life) (converted)): 20.8 h; Tmax ([1]; oral, 240 mg/day (n = 3), multiple daily doses, Cycle 1, Day 28): 2 h; AUC(0-t) [1, 9]: 23900 ng·h/mL; Cmax [1, 9]: 1720 ng/mL; half-life ([1]; oral, 360 mg/day (n = 3), multiple daily doses, Cycle 1, Day 28, mean, read-out: T1/2 (terminal half-life) (converted)): 21.4 h; Tmax ([1]; oral, 360 mg/day (n = 3), multiple daily doses, Cycle 1, Day 28): 2 h; AUC(0-t) [1, 10]: 61700 ng·h/mL; Cmax [1, 10]: 3890 ng/mL; half-life ([1]; oral, 520 mg/day (n = 3), multiple daily doses, Cycle 1, Day 28, mean, read-out: T1/2 (terminal half-life) (converted)): 20.9 h; Tmax ([1]; oral, 520 mg/day (n = 3), multiple daily doses, Cycle 1, Day 28): 4 h; AUC(0-t) [1, 11]: 55100 ng·h/mL; Cmax [1, 11]: 3060 ng/mL; half-life ([1]; oral, 680 mg/day (n = 27), multiple daily doses, Cycle 1, Day 28, mean, read-out: T1/2 (terminal half-life) (converted)): 33.7 h; Tmax ([1]; oral, 680 mg/day (n = 27), multiple daily doses, Cycle 1, Day 28): 4 h; AUC(0-t) [1, 12]: 70800 ng·h/mL; Cmax [1, 12]: 4380 ng/mL; half-life ([1]; oral, 800 mg/day (n = 5), multiple daily doses, Cycle 1, Day 28, mean, read-out: T1/2 (terminal half-life) (converted)): 24 h; Tmax ([1]; oral, 800 mg/day (n = 5), multiple daily doses, Cycle 1, Day 28): 2.25 h; half-life ([1]; oral, across all doses, read-out: Terminal phase half-life at steady state): 16 to 34 h; Time after dosing at which peak plasma concentration was achieved ([1]; oral, once daily): 1 to 4 h; Increase in mean steady-state AUC0-t [1, 13]: ~88 fold; Increase in mean steady-state Cmax [1, 13]: approximately 54 fold; Subjects who reported new onset of =1 symptom during the study ([2]; FIG. 4): 18 subjects; Night sweats: subjects with complete resolution ([2]; MTD cohort, after 1 cycle): 64%; Cough: subjects reporting improvement [2, 14]: 75%; Cough: subjects with complete resolution [2, 14]: 67%; Pruritus: subjects with complete resolution [2, 15]: 50%; Pruritus: subjects with improvement [2, 15]: 75%; Early satiety: subjects with complete resolution ([2]; MTD cohort, after 2 cycles (n=27)): 56%; Night sweats: subjects with complete resolution ([2]; MTD cohort, after 6 cycles (n=9)): 89%; Fatigue: subjects reporting improvement [2, 16]: 63%; Fatigue: subjects with complete resolution [2, 16]: 25%; Effect on MF-associated constitutional symptoms ([2]; early satiety, fatigue, cough, pruritus, night sweats, baseline versus last visit, dihydrochloride monohydrate): clinically significant benefit or resolution of constitutional symptoms; also recorded: able to improve the MF-associated constitutional symptoms; also recorded: remarkable activity against MF-associated constitutional symptoms, pruritus and cachexia; Subjects with new-onset symptoms resolved by last follow-up visit ([2]; of the 18 with new onset, FIG. 4): 12 subjects; Pruritus in one subject ([2]; subject with JAK2V617F-positive PMF, started at 680 mg/day): complete resolution of pruritus; Bone marrow fibrosis grade ([3]; after 18 cycles, person, V617F negative PMF, 3+ at baseline, starting dose 240, follow-up 440 mg/day): 0; Bone marrow cellularity ([3]; after 18 cycles, person, V617F negative PMF, 60% at baseline, starting dose 30, follow-up 520 mg/day): 5-10%; BM cellularity and reticulin fibrosis with extended treatment ([3]; preliminary observations): reduction in BM cellularity and reticulinfibrosis; Weight, change from baseline, median ([4]; 6 Cycles, MTD Cohort (n = 28)): 0.6 kg; Weight, median ([4]; 6 Cycles, MTD Cohort (n = 28)): 77.7 kg; Weight, change from baseline, median ([4]; 6 Cycles, Overall (n = 43)): 0.4 kg; Weight, median ([4]; 6 Cycles, Overall (n = 43)): 76.9 kg; Weight, change from baseline, median ([4]; 12 Cycles, MTD Cohort (n = 26)): 0.35 kg; Weight, median ([4]; 12 Cycles, MTD Cohort (n = 26)): 76.5 kg; Weight, change from baseline, median ([4]; 12 Cycles, Overall (n = 36)): 0.7 kg; Weight, median ([4]; 12 Cycles, Overall (n = 36)): 76.1 kg; Median body weight relative to baseline ([4]; end of 6 and 12 cycles, overall and MTD cohorts): stable relative to baseline
